# Source: patent US8821568B2, “Implant modified with non-hydroxylated vitamin D precursors” (Numat Biomedical S.L., priority 2008, dated 2014)
# Tests used:
# MC3T3-E1 cells [1] = assay: LDH activity (cell viability) on coated titanium implants; format: cell-based, mouse
# Procedure: To treat implant surfaces, 10 μl of each dilution treatment were left on the surfaces and were allowed to air-dry for 15 min in the sterile flow bench. For UV-irradiation, a UV lamp of 302 nm was used at an intensity of irradiation ca. 6 mW/cm^2 during several irradiation times.
# To test the effect of the surface modification, 96-well plates were used. Ti disks were placed into the wells and treatments and UV-activation were performed over there. Cells grown onto untreated polystyrene tissue culture plastic (TCP) were added as a control for all the experiments. Cells were seeded at a density of 30,000 cells/cm^2 and they were maintained in α-MEM supplemented with 10% FCS and antibiotics. […] Cells were harvested after two days of culture using Trizol reagent (Roche Diagnostics, Mannheim, Germany), to analyze gene expression of several osteoblast differentiation markers and enzymes involved in vitamin D synthesis using real-time RT-PCR. […]
# Lactate dehydrogenase (LDH) activity in the culture media was used as an index of cell death. LDH activity was determined spectrophotometrically after 30 min incubation at 25° C. of 50 μl of culture and 50 μl of the reaction mixture by measuring the oxidation of NADH at 490 nm in the presence of piruvate following the manufacturer's protocol (Cytotoxicity Detection Kit (LDH), Roche Diagnostics, Mannheim, Germany). […]
# MC3T3-E1 cells [2] = assay: Real-time RT-PCR of bone markers, plastic wells; format: cell-based, mouse; conditions: TCP, 2 days
# Procedure: To test the effect of the different treatments onto the plastic wells, 96-well plates made of polystyrene were used and the treatments with 7-DHC performed directly onto them. Cells grown onto untreated TCP were added as a control for all the experiments. Cells were seeded at a density of 30,000 cells/cm^2 and they were maintained in α-MEM supplemented with 10% FCS and antibiotics. Culture media was collected after 48 hours, to test cytotoxicity and the production of the hydroxylated forms of vitamin D. Cells were harvested after 2 days of culture using Trizol reagent (Roche Diagnostics, Mannheim, Germany), to analyse early gene expression response of several osteoblast differentiation markers and enzymes involved in vitamin D synthesis using real-time RT-PCR.
# RNA was isolated from cells using a monophasic solution of phenol and guanidine thiocyanate (Trizol, Roche Diagnostics, Mannheim, Germany) according to the manufacturer's protocol. RNA was quantified at 260 nm using a Nanodrop spectrophotometer (NanoDrop Technologies, Wilmington, Del., USA).
# Total RNA previously isolated was reverse-transcribed to cDNA using High Capacity RNA to cDNA kit (Applied Biosystems, Foster City, Calif.) according to the protocol of the supplier. The same amount of total RNA from each sample was converted into cDNA. Each cDNA was diluted ¼ and aliquots were stored at −20° C. until the PCR reactions were carried out.
# Real-time RT-PCR was performed for two reference genes: 18S ribosomal RNA (18S rRNA), glyceraldehyde-3-phosphate dehydrogenase (GAPDH), and 11 target genes alkaline phospathase (ALP), Interleukin 6 (IL-6), Collagen (Coll-1), Osteocalcin (OC), Bone Morphogenetic Protein 2 (BMP-2), Osterix (Osx), Receptor activator of nuclear factor kappa-B ligand (RANKL), Osteoprogesterin (OPG) and genes involved in vitamin D synthesis such as Vitamin D3 25-hydroxylase (CYP27A1), 25 hydroxyvitamin D3-1-alpha hydroxylase (CYP27B1) and 1,25-dihydroxyvitamin D3 24-hydroxylase (CYP24A1).
# Real-time PCR were performed in the Lightcycler 480® (Roche Diagnostics, Germany). Each reaction contained 5 μl of LightCycler-FastStart DNA Master^PLUS SYBR Green I (Roche Diagnostics, Mannheim, Germany), 0.5 μM of the sense and antisense specific primers (Table 1) and 3 μl of the cDNA dilution in a final volume of 10 μl. The normal amplification program consisted of a preincubation step for denaturation of the template cDNA (10 min 95° C.), followed by 45 cycles consisting of a denaturation step (10 s 95° C.), an annealing step (10 s 60° C., except for ALP that was 10 s at 65° C., OSX with 10 s at 68° C. and CYP24A1 at 58° C. 10 s) and an extension step (10 s 72° C.). After each cycle, fluorescence was measured at 72° C. Every run included a negative control without cDNA template. To confirm amplification specificity, PCR products were subjected to a melting curve analysis on the LightCycler and subsequently 2% agarose/TAE gel electrophoresis, Tm and amplicon size, respectively.
# To allow relative quantification after PCR, real-time efficiencies were calculated from the given slopes in the LightCycler 480 software (Roche Diagnostics, Mannheim, Germany) using serial dilutions. Relative quantification after PCR was calculated by normalizing target gene concentration in each sample by the concentration mean of the two reference genes in given sample using the “advanced relative quantification method” provided by the LightCycler 480 analysis software.
compound,measurement,setting,value
"CC(C)CCC[C@@H](C)[C@H]1CC[C@H]2C3=CC=C4C[C@@H](O)CC[C@]4(C)[C@H]3CC[C@]12C [7-DHC, 7-dehydrocholesterol]",Cytotoxic effect,MC3T3-E1 cells [1]; Ti implants treated and UV-irradiated,No cytotoxic effect
same,Cell viability (LDH activity),"MC3T3-E1 cells [1]; Ti implants, 0.2 nmols, 24 h, UV-activated 5 to 10 minutes, compared to negative control (TCP)",protective effects
same,Collagen type-1 mRNA levels,MC3T3-E1 cells [2]; 0.2 nmols UV-treated vs same treatment non UV-irradiated,increased mRNA levels
same,Osteocalcin mRNA levels,MC3T3-E1 cells [2]; 2 nmols UV-treated vs same treatment non UV-irradiated,statistical differences
same,Bone morphogenetic protein 2 mRNA levels,MC3T3-E1 cells [2]; 2×10^−2 nmols UV-treated vs non-irradiated,significantly lower levels
same,ALP mRNA levels,MC3T3-E1 cells [2]; 2×10^−3 nmols UV-treated vs same treatment non UV-irradiated,Higher ALP mRNA levels
same,Osterix expression levels,"MC3T3-E1 cells [2]; all UV-treated groups vs non irradiated, significant at 0.2 and 2 nmols",Higher expression levels
same,IL-6 mRNA levels,"MC3T3-E1 cells [2]; different doses, UV-treated vs UV-untreated",No significant differences
same,RANKL mRNA levels,MC3T3-E1 cells [2]; some UV-untreated samples compared to their control,lower
